The results in this text go back to patent US8895733B2 (Novartis AG, priority 2010, dated 2014).

Molecules are shown by their SMILES. pIC50: −log10 of the molar value.

T1 sequence (Q15858 whole entry): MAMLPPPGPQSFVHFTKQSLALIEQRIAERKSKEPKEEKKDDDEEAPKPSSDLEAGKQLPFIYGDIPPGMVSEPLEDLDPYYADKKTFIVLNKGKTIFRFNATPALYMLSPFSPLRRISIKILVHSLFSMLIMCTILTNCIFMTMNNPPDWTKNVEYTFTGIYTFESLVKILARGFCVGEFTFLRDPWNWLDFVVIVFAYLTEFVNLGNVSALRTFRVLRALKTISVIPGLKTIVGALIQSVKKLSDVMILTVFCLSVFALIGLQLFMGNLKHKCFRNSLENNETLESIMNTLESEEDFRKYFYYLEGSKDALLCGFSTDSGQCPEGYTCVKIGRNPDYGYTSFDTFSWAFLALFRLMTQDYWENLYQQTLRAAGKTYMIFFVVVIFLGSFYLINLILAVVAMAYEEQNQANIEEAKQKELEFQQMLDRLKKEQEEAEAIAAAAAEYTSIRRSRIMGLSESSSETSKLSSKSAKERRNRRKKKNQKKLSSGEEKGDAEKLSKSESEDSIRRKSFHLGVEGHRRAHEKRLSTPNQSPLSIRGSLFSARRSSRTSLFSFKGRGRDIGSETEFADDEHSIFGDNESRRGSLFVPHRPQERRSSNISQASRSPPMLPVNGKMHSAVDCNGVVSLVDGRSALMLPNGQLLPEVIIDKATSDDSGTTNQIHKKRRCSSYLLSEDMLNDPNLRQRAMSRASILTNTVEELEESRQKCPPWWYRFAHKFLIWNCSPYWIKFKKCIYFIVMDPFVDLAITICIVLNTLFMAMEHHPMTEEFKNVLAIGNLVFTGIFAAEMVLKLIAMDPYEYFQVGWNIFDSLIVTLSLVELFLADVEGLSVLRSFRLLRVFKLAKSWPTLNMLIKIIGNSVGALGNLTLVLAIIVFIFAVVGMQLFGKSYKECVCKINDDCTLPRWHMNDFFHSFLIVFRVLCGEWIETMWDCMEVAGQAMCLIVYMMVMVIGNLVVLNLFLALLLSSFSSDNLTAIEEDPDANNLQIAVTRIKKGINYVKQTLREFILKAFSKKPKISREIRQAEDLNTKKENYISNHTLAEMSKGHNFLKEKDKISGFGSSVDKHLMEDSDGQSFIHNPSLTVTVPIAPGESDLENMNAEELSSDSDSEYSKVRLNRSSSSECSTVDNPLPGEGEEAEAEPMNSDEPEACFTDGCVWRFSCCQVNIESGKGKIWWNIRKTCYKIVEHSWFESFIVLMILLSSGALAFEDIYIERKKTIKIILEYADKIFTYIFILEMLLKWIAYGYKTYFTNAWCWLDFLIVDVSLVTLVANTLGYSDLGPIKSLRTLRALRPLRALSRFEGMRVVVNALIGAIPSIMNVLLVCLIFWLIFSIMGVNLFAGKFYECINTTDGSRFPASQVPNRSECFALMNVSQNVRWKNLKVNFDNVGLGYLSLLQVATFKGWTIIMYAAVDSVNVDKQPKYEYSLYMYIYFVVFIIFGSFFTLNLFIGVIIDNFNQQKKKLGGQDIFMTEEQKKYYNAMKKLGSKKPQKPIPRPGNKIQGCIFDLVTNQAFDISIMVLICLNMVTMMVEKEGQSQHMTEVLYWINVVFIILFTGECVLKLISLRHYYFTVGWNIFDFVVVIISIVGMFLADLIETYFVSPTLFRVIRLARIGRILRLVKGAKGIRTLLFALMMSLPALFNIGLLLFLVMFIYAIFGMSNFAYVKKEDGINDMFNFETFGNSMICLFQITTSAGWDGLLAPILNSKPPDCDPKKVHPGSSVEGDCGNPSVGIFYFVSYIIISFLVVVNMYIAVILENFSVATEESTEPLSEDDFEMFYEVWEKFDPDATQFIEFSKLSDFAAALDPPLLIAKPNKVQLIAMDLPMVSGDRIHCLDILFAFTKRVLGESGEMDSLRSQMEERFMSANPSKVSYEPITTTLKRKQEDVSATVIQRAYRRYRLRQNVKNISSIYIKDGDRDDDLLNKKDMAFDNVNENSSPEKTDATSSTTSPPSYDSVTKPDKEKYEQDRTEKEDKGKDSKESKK

One assay addresses T1, Nav 1.7 (Homo sapiens, UniProt Q15858).
T1 construct: expressed in transfected cells
Description: Whole-cell voltage clamp electrophysiology, automated patch clamp (marker c in Table of Examples). The following applies: marker c = Automated patch clamp data; read-out: Nav 1.7 activity. Type of assay: cell-based. Summed up:
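Human NaV1.7 currents were recorded by whole-cell automated patch clamp, on IonWorks Quattro or another automated platform, typically in perforated-patch configuration. The stimulus protocol was designed to probe block mainly of the inactivated state, with a typical sweep stepping from about −65 mV holding to −10 mV, then −100 mV.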
(In general: Patch clamp records ionic current or voltage across a cell membrane.)
Regarding `CN(c1ccccc1)c1nc(N)nc(-c2noc(-c3ccc4c(c3)CCO4)n2)n1` [Example 339, 6-[5-(2,3-dihydro-1-benzofuran-5-yl)-1,2,4-oxadiazol-3-yl]-2-N-methyl-2-N-phenyl-1,3,5-triazine-2,4-diamine], the pIC50 is 6.97.
Same read-out and setting: to `CN(c1ccccc1)c1nc(N)nc(-c2noc(-c3ncccc3C(F)(F)F)n2)n1` [Example 348, 2-N-methyl-2-N-phenyl-6-{5-[3-(trifluoromethyl)pyridin-2-yl]-1,2,4-oxadiazol-3-yl}-1,3,5-triazine-2,4-diamine] belongs 6.48.
Same read-out and setting: the same measure for `Nc1nc(Nc2ccccc2)nc(-c2noc(-c3ccc(OCCC(F)(F)F)nc3)n2)n1` [Example 363, 2-N-phenyl-6-{5-[6-(3,3,3-trifluoropropoxy)pyridin-3-yl]-1,2,4-oxadiazol-3-yl}-1,3,5-triazine-2,4-diamine]: 8.15.
With `CN(c1ccc(F)c(Cl)c1)c1nc(N)nc(-c2noc(-c3ccc(OCC(F)(F)F)nc3)n2)n1` [Example 414, 2-N-(3-Chloro-4-fluorophenyl)-2-N-methyl-6-{5-[6-(2,2,2-trifluoroethoxy)pyridin-3-yl]-1,2,4-oxadiazol-3-yl}-1,3,5-triazine-2,4-diamine], the pIC50 is 6.39.
The same measure, in the same setting: the same measure for `Nc1nc(Nc2cccc(F)c2)nc(-c2noc(-c3ncccc3F)n2)n1` [Example 240, 2-N-(3-fluorophenyl)-6-[5-(3-fluoropyridin-2-yl)-1,2,4-oxadiazol-3-yl]-1,3,5-triazine-2,4-diamine]: 6.76.
Same read-out and setting: the same measure for `Nc1nc(Nc2ccccc2)nc(-c2noc(N3CC4C(COc5ccccc5)C4C3)n2)n1` (stereo not drawn) [Example 392, 6-{5-[6-(phenoxymethyl)-3-azabicyclo[3.1.0]hexan-3-yl]-1,2,4-oxadiazol-3-yl}-2-N-phenyl-1,3,5-triazine-2,4-diamine]: 6.36; for `CN(c1ccccc1)c1nc(N)nc(-c2noc(-c3ccc(OCC#N)nc3)n2)n1` [Example 330, 2-{[5-(3-{4-Amino-6-[methyl(phenyl)amino]-1,3,5-triazin-2-yl}-1,2,4-oxadiazol-5-yl)pyridin-2-yl]oxy}acetonitrile]: 5.04; for `CC(C)SC1CCN(c2nc(-c3nc(N)nc(N(C)c4ccccc4)n3)no2)CC1` [Example 367, 2-N-methyl-2-N-phenyl-6-{5-[4-(propan-2-ylsulfanyl)piperidin-1-yl]-1,2,4-oxadiazol-3-yl}-1,3,5-triazine-2,4-diamine]: 5.69.
With `Cc1cccc(N(C)c2nc(N)nc(-c3noc(-c4ccc(OCC(F)(F)F)nc4)n3)n2)c1` [Example 412, 2-N-methyl-2-N-(3-methylphenyl)-6-{5-[6-(2,2,2-trifluoroethoxy)pyridin-3-yl]-1,2,4-oxadiazol-3-yl}-1,3,5-triazine-2,4-diamine], the pIC50 was 7.09.
On the same count and under the same terms, the same measure for `CN(c1ccccc1)c1nc(N)nc(-c2noc(-c3n[nH]cc3Cl)n2)n1` [Example 254, 6-[5-(4-chloro-1H-pyrazol-3-yl)-1,2,4-oxadiazol-3-yl]-2-N-methyl-2-N-phenyl-1,3,5-triazine-2,4-diamine]: 6.26; for `Nc1nc(Nc2ccccc2)nc(-c2noc(NC3CCCC3)n2)n1` [Example 231, 6-[5-(cyclopentylamino)-1,2,4-oxadiazol-3-yl]-2-N-phenyl-1,3,5-triazine-2,4-diamine]: 5.49; for `CN(c1ccccc1)c1nc(N)nc(-c2noc(C3CCCCC3)n2)n1` [Example 266, 6-(5-cyclohexyl-1,2,4-oxadiazol-3-yl)-2-N-methyl-2-N-phenyl-1,3,5-triazine-2,4-diamine]: 5.36.
On to `COc1ccc(CNC(=O)c2nc(-c3nc(N)nc(N(C)c4ccccc4)n3)no2)cn1` [Example 260, 3-{4-amino-6-[methyl(phenyl)amino]-1,3,5-triazin-2-yl}-N-[(6-methoxypyridin-3-yl)methyl]-1,2,4-oxadiazole-5-carboxamide], for which the pIC50 is 5.92.
With `CN(C)C(=O)c1ccc(-c2nc(-c3nc(N)nc(N(C)c4ccccc4)n3)no2)cn1` [Example 478, 5-{3-[4-Amino-6-(methyl-phenyl-amino)-[1,3,5]triazin-2-yl]-[1,2,4]oxadiazol-5-yl}-pyridine-2-carboxylic acid dimethylamide], the pIC50 is 5.06.
The same measure, in the same setting: the same measure for `CN(c1ccccc1)c1nc(N)nc(-c2noc(-c3ccc(CS(=O)(=O)CC(F)(F)F)nc3)n2)n1` [Example 321, 2-N-methyl-2-N-phenyl-6-[5-(6-{[(2,2,2-trifluoroethane)sulfonyl]methyl}pyridin-3-yl)-1,2,4-oxadiazol-3-yl]-1,3,5-triazine-2,4-diamine]: 6.83; for `CN(c1ccc(F)nc1)c1nc(N)nc(-c2noc(-c3ccc(OCC(F)(F)F)nc3)n2)n1` [Example 432, 2-N-(6-Fluoropyridin-3-yl)-2-N-methyl-6-{5-[6-(2,2,2-trifluoroethoxy)pyridin-3-yl]-1,2,4-oxadiazol-3-yl}-1,3,5-triazine-2,4-diamine]: 5.20; for `CN(c1ccccc1)c1nc(N)nc(-c2noc(-c3ncc(F)cc3F)n2)n1` [Example 281]: 5.74.
The same measure, in the same setting: the same measure for `CN(c1ccccc1)c1nc(N)nc(-c2noc(C3CCN(S(=O)(=O)C4CCCC4)CC3)n2)n1` [Example 509, 6-{5-[1-(cyclopentanesulfonyl)piperidin-4-yl]-1,2,4-oxadiazol-3-yl}-2-N-methyl-2-N-phenyl-1,3,5-triazine-2,4-diamine]: 5.96; for `CN(c1ccccc1)c1nc(N)nc(-c2noc(-c3ccc(C(N)=O)nc3)n2)n1` [Example 284, 5-(3-{4-Amino-6-[methyl(phenyl)amino]-1,3,5-triazin-2-yl}-1,2,4-oxadiazol-5-yl)pyridine-2-carboxamide]: 6.15; for `CC(c1ccc(-c2nc(-c3nc(N)nc(N(C)c4ccccc4)n3)no2)nc1)N1CCCC1` (stereo not drawn) [Example 294, 2-N-Methyl-2-N-phenyl-6-(5-{5-[1-(pyrrolidin-1-yl)ethyl]pyridin-2-yl}-1,2,4-oxadiazol-3-yl)-1,3,5-triazine-2,4-diamine]: 5.40.

The assay is the same for the next values; noted with them: marker c: Automated patch clamp data; read-out: Nav 1.7 activity.
Take `CN(c1ccccc1)c1nc(N)nc(-c2noc(-c3cc4ccccc4o3)n2)n1` [Example 64, 6-(5-Benzofuran-2-yl-[1,2,4]oxadiazol-3-yl)-N-methyl-N-phenyl-[1,3,5]triazine-2,4-diamine]: the pIC50 is 5.71.
As to `CN(c1ccccc1)c1nc(N)nc(-c2noc(C3CCOCC3)n2)n1` [Example 57, N-Methyl-N-phenyl-6-[5-(tetrahydro-pyran-4-yl)-[1,2,4]oxadiazol-3-yl]-[1,3,5]triazine-2,4-diamine], the pIC50 was 5.94.
The same measure, in the same setting: the same measure for `FC(F)(F)CNc1nc(Nc2ccccc2)nc(-c2noc(-c3ccc(OCC(F)(F)F)nc3)n2)n1` [Example 151, 2-N-phenyl-6-{5-[6-(2,2,2-trifluoroethoxy)pyridin-3-yl]-1,2,4-oxadiazol-3-yl}-4-N-(2,2,2-trifluoroethyl)-1,3,5-triazine-2,4-diamine]: 5.83; for `Cc1ccsc1-c1nc(-c2nc(N)nc(N(C)c3ccccc3)n2)no1` [Example 126, N-Methyl-6-[5-(3-methyl-thiophen-2-yl)-[1,2,4]oxadiazol-3-yl]-N-phenyl-[1,3,5]triazine-2,4-diamine]: 6.11.
